Results from patent US12660819B2, “Herbicidal derivatives” (SYNGENTA CROP PROTECTION AG, priority 2020, dated 2026).

Key:
Assay type in all cases: in vivo
[1] = tested on: Amaranthus palmeri (AMAPA); experiment: Pre-emergence Test (glasshouse, percentage damage to the plant); settings: 1000 g/ha unless otherwise stated, Amaranthus palmeri
[2] = tested on: Amaranthus retoflexus (AMARE); experiment: as above; settings: 1000 g/ha unless otherwise stated, Amaranthus retoflexus
[3] = tested on: Ipomoea hederacea (IPOHE); experiment: as above; settings: 1000 g/ha unless otherwise stated, Ipomoea hederacea
[4] = tested on: Amaranthus palmeri (AMAPA); experiment: Post-emergence Test (glasshouse, percentage damage to the plant); settings: post-emergence; 1000 g/ha unless otherwise stated; evaluated after 13 days
Method in brief: (§1)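 Compound formulated in 50:50 acetone/water with 0.5% Tween 20 was diluted to an aqueous spray and applied at 1000 g/ha, unless otherwise stated, onto sown pots. Evaluation after 13 days gave percentage damage, banded into a 1–5 score.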

[5] = tested on: Ipomoea hederacea (IPOHE); experiment: as above; settings: post-emergence; 1000 g/ha unless otherwise stated; evaluated after 13 days
Method in brief: (§2)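 Percentage damage to the plant, assessed 13 days after application and scored 1–5 in 20% bands. Pots sown in standard soil received compound at 1000 g/ha unless otherwise stated, sprayed under 24/16 °C, 14 h light, 65% humidity.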

[6] = tested on: Amaranthus retoflexus (AMARE); experiment: as above; settings: post-emergence; 1000 g/ha unless otherwise stated; evaluated after 13 days
Method in brief: as §1

Setaria faberi (SETFA) [7] = experiment: as above; settings: post-emergence; 1000 g/ha unless otherwise stated; evaluated after 13 days
Method in brief: as §2

Zea mays (ZEAMX) [8] = experiment: as above; settings: post-emergence; 1000 g/ha unless otherwise stated; evaluated after 13 days
Method in brief: as §2

[9] = tested on: Echinochloa crus-galli (ECHCG); experiment: as above; settings: post-emergence; 1000 g/ha unless otherwise stated; evaluated after 13 days
Method in brief: as §1

[10] = tested on: Echinochloa crus-galli (ECHCG); experiment: Pre-emergence Test (glasshouse, percentage damage to the plant); settings: 1000 g/ha unless otherwise stated, Echinochloa crus-galli
Setaria faberi (SETFA) [11] = experiment: as above; settings: 1000 g/ha unless otherwise stated, Setaria faberi
Zea mays (ZEAMX) [12] = experiment: as above; settings: 1000 g/ha unless otherwise stated, Zea mays

| Structure (SMILES) | percentage damage to the plant, AMAPA (five-point scale) [1] | percentage damage to the plant, AMARE (five-point scale) [2] | percentage damage to the plant, IPOHE (five-point scale) [3] | AMAPA, percentage damage caused to the plant (five-point scale) [4] | IPOHE, percentage damage caused to the plant (five-point scale) [5] | AMARE, percentage damage caused to the plant (five-point scale) [6] | SETFA, percentage damage caused to the plant (five-point scale) (Setaria faberi (SETFA) [7]) | ZEAMX, percentage damage caused to the plant (five-point scale) (Zea mays (ZEAMX) [8]) | ECHCG, percentage damage caused to the plant (five-point scale) [9] | percentage damage to the plant, ECHCG (five-point scale) [10] | percentage damage to the plant, SETFA (five-point scale) (Setaria faberi (SETFA) [11]) | percentage damage to the plant, ZEAMX (five-point scale) (Zea mays (ZEAMX) [12]) |
| --- | --- | --- | --- | --- | --- | --- | --- | --- | --- | --- | --- | --- |
| CCn1c(C)c(-c2cc(OCC3CC3)c(Cl)cc2F)c(=O)c(C(=O)O)c1-c1ccc(F)c(F)c1 [Compound 262, 5-[4-chloro-5-(cyclopropylmethoxy)-2-fluoro-phenyl]-2-(3,4-difluorophenyl)-1-ethyl-6-methyl-4-oxo-pyridine-3-carboxylic acid] | 5 (5=81-100%) | 5 (5=81-100%) | 3 (3=41-60%) | 5 (5=81-100%) | 2 (2=21-40%) | 5 (5=81-100%) | 5 (5=81-100%) | 4 (4=61-80%) | 4 (4=61-80%) | 5 (5=81-100%) | 5 (5=81-100%) | 2 (2=21-40%) |
| CCn1c(C)c(-c2ccc(Cl)cc2)c(=O)c(C(=O)O)c1-c1cnc(Cl)c(Cl)c1 [Compound 208, 5-(4-chlorophenyl)-2-(5,6-dichloro-3-pyridyl)-1-ethyl-6-methyl-4-oxo-pyridine-3-carboxylic acid] | 5 (5=81-100%) | 1 (1=0-20%) | 2 (2=21-40%) | 4 (4=61-80%) | 2 (2=21-40%) | 4 (4=61-80%) | 5 (5=81-100%) | 4 (4=61-80%) | 3 (3=41-60%) | 1 (1=0-20%) | 2 (2=21-40%) | 0 |
| CCn1c(C)c(-c2cc(OC(C)C)c(Cl)cc2F)c(=O)c(C(=O)O)c1-c1ccc(Cl)c(Cl)c1 [Compound 245, 5-(4-chloro-2-fluoro-5-isopropoxy-phenyl)-2-(3,4-dichlorophenyl)-1-ethyl-6-methyl-4-oxo-pyridine-3-carboxylic acid] | 5 (5=81-100%) | 5 (5=81-100%) | 2 (2=21-40%) | 5 (5=81-100%) | 4 (4=61-80%) | 5 (5=81-100%) | 5 (5=81-100%) | 3 (3=41-60%) | 5 (5=81-100%) | 5 (5=81-100%) | 5 (5=81-100%) | 0 |
| CCn1c(C)c(-c2cccc(C(F)(F)F)c2F)c(=O)c(C(=O)O)c1-c1ccc(Cl)c(Cl)c1 [Compound 207, 2-(3,4-dichlorophenyl)-1-ethyl-5-[2-fluoro-3-(trifluoromethyl)phenyl]-6-methyl-4-oxo-pyridine-3-carboxylic acid] | 3 (3=41-60%) | 3 (3=41-60%) | 3 (3=41-60%) | 3 (3=41-60%) | 4 (4=61-80%) | 3 (3=41-60%) | 4 (4=61-80%) | 3 (3=41-60%) | 4 (4=61-80%) | 2 (2=21-40%) | 5 (5=81-100%) | 1 (1=0-20%) |
| Cc1c(-c2ccc(Cl)cc2Cl)c(=O)c(C(=O)O)c(-c2ccc(Cl)c(Cl)c2)n1C [Compound 251, 5-(2,4-dichlorophenyl)-2-(3,4-dichlorophenyl)-1,6-dimethyl-4-oxo-pyridine-3-carboxylic acid] | 2 (2=21-40%) | 1 (1=0-20%) | 0 | 3 (3=41-60%) | 0 | 4 (4=61-80%) | 0 | 1 (1=0-20%) | 1 (1=0-20%) | 0 | 0 | 0 |
| CCn1c(C)c(-c2ccc(Cl)cc2Cl)c(=O)c(C(=O)OC)c1-c1cnc(Cl)c(Cl)c1 [Compound 214, methyl 5-(2,4-dichlorophenyl)-2-(5,6-dichloro-3-pyridyl)-1-ethyl-6-methyl-4-oxo-pyridine-3-carboxylate] | 0 | 0 | 0 | 2 (2=21-40%) | 0 | 2 (2=21-40%) | 1 (1=0-20%) | 1 (1=0-20%) | 0 | 0 | 0 | 0 |
| CCn1c(C)c(-c2cc(OCC3CC3)c(Cl)cc2F)c(=O)c(C(=O)O)c1-c1ccc(Cl)c(Cl)c1 [Compound 246, 5-[4-chloro-5-(cyclopropylmethoxy)-2-fluoro-phenyl]-2-(3,4-dichlorophenyl)-1-ethyl-6-methyl-4-oxo-pyridine-3-carboxylic acid] | 5 (5=81-100%) | 5 (5=81-100%) | 0 | 5 (5=81-100%) | 2 (2=21-40%) | 5 (5=81-100%) | 3 (3=41-60%) | 3 (3=41-60%) | 4 (4=61-80%) | 4 (4=61-80%) | 2 (2=21-40%) | 0 |
| CCn1c(C)c(-c2ccc(Cl)cc2F)c(=O)c(C(=O)O)c1-c1cnc(Cl)c(Cl)c1 [Compound 242, 5-(4-chloro-2-fluoro-phenyl)-2-(5,6-dichloro-3-pyridyl)-1-ethyl-6-methyl-4-oxo-pyridine-3-carboxylic acid] | 5 (5=81-100%) | 4 (4=61-80%) | 4 (4=61-80%) | 5 (5=81-100%) | 4 (4=61-80%) | 5 (5=81-100%) | 5 (5=81-100%) | 4 (4=61-80%) | 5 (5=81-100%) | 5 (5=81-100%) | 5 (5=81-100%) | 2 (2=21-40%) |
| CCn1c(C)c(-c2ccc(F)cc2)c(=O)c(C(=O)O)c1-c1cnc(Cl)c(Cl)c1 [Compound 211, 2-(5,6-dichloro-3-pyridyl)-1-ethyl-5-(4-fluorophenyl)-6-methyl-4-oxo-pyridine-3-carboxylic acid] | 4 (4=61-80%) | 1 (1=0-20%) | 0 | 3 (3=41-60%) | 1 (1=0-20%) | 2 (2=21-40%) | 1 (1=0-20%) | 1 (1=0-20%) | 1 (1=0-20%) | 1 (1=0-20%) | 0 | 0 |
